“Also recorded” adds a separate entry of the source.
Experiments:
microglia = test: Pharmacological animal experiment: microglia clearance in mice fed PLX5622 crystal forms (IBA1 staining, Image j counting); assay type: in vivo, C57BL/6J mice; conditions: for 7-day clearance rate / 14-day clearance rate / 7-day number of cells / 14-day number of cells: C57BL/6J mice, in AIN-76A food; for 7-day clearance rate / 14-day clearance rate: administration every other day, average clearance rate of microglia; for 7-day clearance rate / 7-day number of cells: 7 days; for 14-day clearance rate / 14-day number of cells: 14 days; for 7-day number of cells / 14-day number of cells: average statistical number of microglia (total number in brains); for Microglia clearance rate compared with Form A: 7-day or 14-day clearance rate, mice
Experimental: Mice were adaptively fed for 3-6 days upon arrival in the mouse room, with AIN-76A food. Group A was administered PLX5622 compound Form A, and Group B was administered PLX5622 compound Form B.
Formal administration: Administration was conducted every other day, on days 1, 3, 5, 7, 9, 11, and 13. Each time of administration required weighing, and the amount was adjusted to 4 g per mouse (actual consumption around 3 g per mouse).
After anesthesia, mice were immobilized using tape or needles/pins, and the fur on the lateral thorax was lifted with forceps. The skin was then cut with scissors to expose the white sternum. The diaphragm was carefully incised with fine scissors, taking care not to damage the above heart.
A small incision was made on the right atrium. The heart was fixed with forceps, and an injection needle was inserted into the left ventricle from the apex of the heart at an angle roughly parallel to the left-right midline of the heart.
Sucrose gradient dehydration: The mouse brains were fixed in 4% paraformaldehyde overnight and then dehydrated with 20% sucrose solution until the material sank to the bottom, followed by dehydration with 30% sucrose solution until the material sank to the bottom. Embedding and sectioning: get 25-40 μm sections, which are the tissues that need to be stained.
• 1. After washing the sections, blocking was initiated with 5% BSA in PBST for 2 hours. • 2. Incubation with the primary antibody, IBA1 (1:500) in 1% BSA in PBST, at 4° C. for at least 14 hours. • 3. Incubation with Alexa Fluor-conjugated secondary antibody (1:500) in 1% BSA in PBST, at room temperature for 2 hours. • 4. Washed with PBS 3-5 times for 10 minutes each, stained with DAPI, followed by addition of anti-fade reagent, dried overnight, and then photographed and scanned for analysis.
Image j counting: All microglia with complete morphology need to be counted.
Among them, the mice are all 3-month-old male mice; the clearance rates are the average clearance rate and the average statistical number of microglia (total number in brains).

[1] = Drying transformation relationship of Form A-F (vacuum drying, XRPD); conditions: for Description / XRPD results: 60-80° C. vacuum drying; for Stability / conversion of crystal form on drying: dried at high temperatures, solvent removed
[2] = Stability tests of crystal forms under accelerated and low-temperature storage (XRPD, HPLC); assay type: physicochemical; conditions: for Polymorphic changes on storage (XRPD): accelerated test conditions (40° C., 75% RH) and low-temperature storage conditions (−20° C.)
[3] = Pharmacokinetic determination in rats (feed administration, plasma and brain); assay type: in vivo; conditions: 1200 ppm in AIN-76A standard feed, 7-day and 14-day groups, Cmax and AUC
Excerpt: Plasma or brain samples from the 2 groups were collected for pharmacokinetic (PK) parameter analysis. For the 7-day group, plasma samples were collected on day 1, day 3, and day 7; after the rats were euthanized on day 7, brain tissue samples were collected. For the […], plasma samples were collected from rats on day 10 and 14; on day 14, the mice were euthanized, and brain tissue samples were collected.
For the processing of plasma samples, rats were anesthetized on days 1, 3, 7 and 10 and 14, and approximately 150 μL of blood was collected via cardiac puncture into anticoagulant centrifuge tubes containing K 2 EDTA. Within 15 minutes of sampling, plasma was obtained by centrifugation at 2000 g for 5 minutes at 4° C. and stored at below −60° C. until analysis. For the processing of brain tissue samples, the rats were euthanized on day 7 and 14, and then the brain tissue was collected. The residual blood on the surface of the tissue was washed away with normal saline, dried with filter paper, weighed, and frozen in dry ice, then store in a refrigerator below −60° C. until sample analysis. Pharmacokinetic (PK) parameters Cmax and AUC were calculated based on a non-compartmental model using WinNonlin 8.2 software. Drug concentrations in mouse plasma and brain tissue were determined.

Compound | 7-day clearance rate (microglia) [%] | 14-day clearance rate (microglia) [%] | 7-day number of cells (microglia) | 14-day number of cells (microglia) | Stability / conversion of crystal form on drying [1] | Purity (by HPLC %) ([2]; 40° C./75% RH, 5 Days) [%] | XRPD ([2]; 40° C./75% RH, 5 Days) | Purity (by HPLC %) ([2]; 40° C./75% RH, 10 Days) [%] | XRPD ([2]; 40° C./75% RH, 10 Days) | Purity (by HPLC %) ([2]; Initial, 0 Day) [%] | XRPD ([2]; Initial, 0 Day) | Polymorphic changes on storage (XRPD) [2] | Purity (by HPLC %) ([2]; −20° C., 10 months) [%] | XRPD ([2]; −20° C., 10 months) | Description ([1]; 24 hours) | XRPD results ([1]; 24 hours) | further results
COc1ncc(F)cc1CNc1ccc(Cc2c[nH]c3ncc(C)cc23)c(F)n1 [Form A, 6-Fluoro-N-((5-fluoro-2-methoxypyridin-3-yl)methyl)-5-((5-methyl-1H-pyrrolo[2,3-b]pyridin-3-yl)methyl) pyridin-2-amine] | 72.6 | 75.1 | (1337) | (922) | remain stable | 99.90 | Form A | 99.90 | Form A | 99.90 | Form A | did not undergo any polymorphic changes | 99.90 | Form A | – | – | Description ([1]; 2 days): White to off-white; XRPD results ([1]; 2 days): Form A; Individual Impurity (RRT/%) RRT = 0.33 ([2]; 40° C./75% RH, 5 Days): 0.06%; Individual Impurity (RRT/%) RRT = 1.50 ([2]; 40° C./75% RH, 5 Days): 0.04%; Individual Impurity (RRT/%) RRT = 0.33 ([2]; 40° C./75% RH, 10 Days): 0.06%; Individual Impurity (RRT/%) RRT = 1.50 ([2]; 40° C./75% RH, 10 Days): 0.04%; Individual Impurity (RRT/%) RRT = 0.33 ([2]; Initial, 0 Day): 0.06%; Individual Impurity (RRT/%) RRT = 1.50 ([2]; Initial, 0 Day): 0.04%; Individual Impurity (RRT/%) RRT = 0.33 ([2]; −20° C., 10 months): 0.06%; Individual Impurity (RRT/%) RRT = 1.50 ([2]; −20° C., 10 months): 0.04%
COc1ncc(F)cc1CNc1ccc(Cc2c[nH]c3ncc(C)cc23)c(F)n1 [Form B, 6-Fluoro-N-((5-fluoro-2-methoxypyridin-3-yl)methyl)-5-((5-methyl-1H-pyrrolo[2,3-b]pyridin-3-yl)methyl) pyridin-2-amine] | 87 | 90 | (482) | (377) | remain stable | 99.92 | Form B | 99.92 | Form B | 99.92 | Form B | did not undergo any polymorphic changes | 99.92 | Form B | – | – | Microglia clearance rate compared with Form A (microglia): better than Form A; Microglia clearance rate compared with Form A (microglia; listed as crystal form B): better clearance rate of microglia cells at 7 or 14 days compared to crystal form A; also recorded: higher rate of microglia cell clearance at 7 days or 14 days; Description ([1]; 3 days): White to off-white; XRPD results ([1]; 3 days): Form B; Individual Impurity (RRT/%) RRT = 1.04 ([2]; 40° C./75% RH, 5 Days): 0.05%; Individual Impurity (RRT/%) RRT = 1.29 ([2]; 40° C./75% RH, 5 Days): 0.03%; Individual Impurity (RRT/%) RRT = 1.04 ([2]; 40° C./75% RH, 10 Days): 0.05%; Individual Impurity (RRT/%) RRT = 1.29 ([2]; 40° C./75% RH, 10 Days): 0.03%; Individual Impurity (RRT/%) RRT = 1.04 ([2]; Initial, 0 Day): 0.05%; Individual Impurity (RRT/%) RRT = 1.29 ([2]; Initial, 0 Day): 0.03%; Individual Impurity (RRT/%) RRT = 1.04 ([2]; −20° C., 10 months): 0.05%; Individual Impurity (RRT/%) RRT = 1.29 ([2]; −20° C., 10 months): 0.03%; Pharmacokinetic performance [3]: better pharmacokinetic performance
COc1ncc(F)cc1CNc1ccc(Cc2c[nH]c3ncc(C)cc23)c(F)n1 [Form C, 6-Fluoro-N-((5-fluoro-2-methoxypyridin-3-yl)methyl)-5-((5-methyl-1H-pyrrolo[2,3-b]pyridin-3-yl)methyl) pyridin-2-amine] | – | – | – | – | converted to Form A | – | – | – | – | – | – | – | – | – | White to off-white | Form A | –
COc1ncc(F)cc1CNc1ccc(Cc2c[nH]c3ncc(C)cc23)c(F)n1 [Form D, 6-Fluoro-N-((5-fluoro-2-methoxypyridin-3-yl)methyl)-5-((5-methyl-1H-pyrrolo[2,3-b]pyridin-3-yl)methyl) pyridin-2-amine] | – | – | – | – | converting it to Form A | – | – | – | – | – | – | – | – | – | White to off-white | Form A | –
COc1ncc(F)cc1CNc1ccc(Cc2c[nH]c3ncc(C)cc23)c(F)n1 [Form E, 6-Fluoro-N-((5-fluoro-2-methoxypyridin-3-yl)methyl)-5-((5-methyl-1H-pyrrolo[2,3-b]pyridin-3-yl)methyl) pyridin-2-amine] | – | – | – | – | – | – | – | – | – | – | – | – | – | – | White to off-white | Form A + B | –
COc1ncc(F)cc1CNc1ccc(Cc2c[nH]c3ncc(C)cc23)c(F)n1 [Form F, 6-Fluoro-N-((5-fluoro-2-methoxypyridin-3-yl)methyl)-5-((5-methyl-1H-pyrrolo[2,3-b]pyridin-3-yl)methyl) pyridin-2-amine] | – | – | – | – | – | – | – | – | – | – | – | – | – | – | White to off-white | Form A + B | –
